Assay results: ChEMBL document CHEMBL1268934, “Design, synthesis, and subtype selectivity of 3,6-disubstituted β-carbolines at Bz/GABA(A)ergic receptors. SAR and studies directed toward agents for treatment of alcohol abuse” (Bioorg Med Chem, 2010)

Tests used:
[1] = biological target: GABA-A receptor; alpha-5/beta-3/gamma-2 (Homo sapiens) (UniProt P18507+P28472+P31644); experiment: Agonist activity at human recombinant GABAA alpha-5-beta-3-gamma-2 receptor expressed in Xenopus oocytes at 1 to 10 uM by patch clamp technique; format: functional, cell-based; conditions: Oocyte
[2] = biological target: GABA-A receptor; alpha-1/beta-3/gamma-2 (Homo sapiens) (UniProt P14867+P18507+P28472); experiment: Agonist activity at human recombinant GABAA alpha-1-beta-3-gamma-2 receptor expressed in Xenopus oocytes at 1 to 10 uM by patch clamp technique; format: functional, cell-based; conditions: Oocyte
[3] = biological target: GABA-A receptor; alpha-3/beta-3/gamma-2 (Homo sapiens) (UniProt P18507+P28472+P34903); experiment: Agonist activity at human recombinant GABAA alpha-3-beta-3-gamma-2 receptor expressed in Xenopus oocytes at 1 to 10 uM by patch clamp technique; format: functional, cell-based; conditions: Oocyte
[4] = biological target: T1, GABA-A receptor; alpha-5/beta-3/gamma-2 (Homo sapiens, UniProt P18507+P28472+P31644); experiment: Displacement of [3H]flunitrazepam from human recombinant GABAA alpha-5-beta-3-gamma-2 receptor expressed in HEK cells by liquid scintillation counting; format: cell-based, HEK293
T1 sequence (P18507 whole entry): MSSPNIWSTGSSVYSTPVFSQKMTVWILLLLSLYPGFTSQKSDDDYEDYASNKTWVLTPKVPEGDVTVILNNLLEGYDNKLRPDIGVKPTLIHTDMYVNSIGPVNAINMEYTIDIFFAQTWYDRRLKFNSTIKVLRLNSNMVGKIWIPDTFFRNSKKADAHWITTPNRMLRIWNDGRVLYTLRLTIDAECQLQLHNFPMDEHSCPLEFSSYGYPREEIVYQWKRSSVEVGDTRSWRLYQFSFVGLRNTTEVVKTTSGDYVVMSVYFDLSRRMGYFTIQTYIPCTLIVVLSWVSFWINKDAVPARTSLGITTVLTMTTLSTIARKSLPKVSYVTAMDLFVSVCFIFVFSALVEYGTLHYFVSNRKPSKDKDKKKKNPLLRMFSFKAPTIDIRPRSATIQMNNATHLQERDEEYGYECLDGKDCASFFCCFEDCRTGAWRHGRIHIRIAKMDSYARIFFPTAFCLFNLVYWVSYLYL
T1 sequence (P28472 whole entry): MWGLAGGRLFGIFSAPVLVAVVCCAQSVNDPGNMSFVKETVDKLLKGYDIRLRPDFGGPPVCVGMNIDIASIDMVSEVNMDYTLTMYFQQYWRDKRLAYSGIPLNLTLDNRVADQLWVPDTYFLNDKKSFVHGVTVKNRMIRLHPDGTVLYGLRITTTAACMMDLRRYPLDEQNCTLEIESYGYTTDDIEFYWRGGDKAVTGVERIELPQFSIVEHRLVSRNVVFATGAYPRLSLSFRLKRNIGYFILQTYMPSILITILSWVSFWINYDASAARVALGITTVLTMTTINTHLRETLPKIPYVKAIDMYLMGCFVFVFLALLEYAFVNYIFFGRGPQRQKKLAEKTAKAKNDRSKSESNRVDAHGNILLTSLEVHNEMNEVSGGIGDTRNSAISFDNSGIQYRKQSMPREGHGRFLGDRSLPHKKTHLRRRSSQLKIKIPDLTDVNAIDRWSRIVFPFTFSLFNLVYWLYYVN
T1 sequence (P31644 whole entry): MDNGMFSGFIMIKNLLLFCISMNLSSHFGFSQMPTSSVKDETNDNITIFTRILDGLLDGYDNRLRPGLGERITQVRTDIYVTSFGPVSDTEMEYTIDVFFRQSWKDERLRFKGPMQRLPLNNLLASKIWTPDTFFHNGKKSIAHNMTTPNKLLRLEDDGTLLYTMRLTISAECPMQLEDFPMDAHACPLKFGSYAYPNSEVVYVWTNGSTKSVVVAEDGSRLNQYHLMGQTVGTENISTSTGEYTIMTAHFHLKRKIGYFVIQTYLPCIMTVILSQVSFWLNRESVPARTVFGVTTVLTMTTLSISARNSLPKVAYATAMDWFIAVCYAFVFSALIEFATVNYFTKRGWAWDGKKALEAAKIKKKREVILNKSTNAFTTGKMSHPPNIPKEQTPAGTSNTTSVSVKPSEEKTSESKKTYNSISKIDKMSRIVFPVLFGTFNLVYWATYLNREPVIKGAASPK

[5] = biological target: T2, GABA-A receptor; alpha-1/beta-3/gamma-2 (Homo sapiens, UniProt P14867+P18507+P28472); experiment: Displacement of [3H]flunitrazepam from human recombinant GABAA alpha-1-beta-3-gamma-2 receptor expressed in HEK cells by liquid scintillation counting; format: cell-based, HEK293
T2 sequence (P14867 whole entry): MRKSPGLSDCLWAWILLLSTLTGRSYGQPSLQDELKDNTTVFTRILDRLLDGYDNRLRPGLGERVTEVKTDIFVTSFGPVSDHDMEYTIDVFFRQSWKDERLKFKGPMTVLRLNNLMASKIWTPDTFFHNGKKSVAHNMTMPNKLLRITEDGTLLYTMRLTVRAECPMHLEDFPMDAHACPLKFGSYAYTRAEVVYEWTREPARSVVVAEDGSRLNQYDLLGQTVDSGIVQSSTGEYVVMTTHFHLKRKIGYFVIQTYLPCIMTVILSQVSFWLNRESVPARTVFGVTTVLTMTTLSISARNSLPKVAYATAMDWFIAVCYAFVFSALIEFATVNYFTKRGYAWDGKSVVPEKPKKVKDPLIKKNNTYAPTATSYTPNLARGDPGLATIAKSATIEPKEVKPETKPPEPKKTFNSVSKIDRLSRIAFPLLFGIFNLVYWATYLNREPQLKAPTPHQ
T2 sequence (P18507 whole entry): T1 sequence (P18507 whole entry)
T2 sequence (P28472 whole entry): T1 sequence (P28472 whole entry)

[6] = biological target: GABA-A receptor; alpha-6/beta-3/gamma-2 (Homo sapiens, UniProt P18507+P28472+Q16445); experiment: Displacement of [3H]flunitrazepam from human recombinant GABAA alpha-6-beta-3-gamma-2 receptor expressed in HEK cells by liquid scintillation counting; format: cell-based, HEK293
Sequence of GABA-A receptor; alpha-6/beta-3/gamma-2 (Q16445 whole entry, one chain of several): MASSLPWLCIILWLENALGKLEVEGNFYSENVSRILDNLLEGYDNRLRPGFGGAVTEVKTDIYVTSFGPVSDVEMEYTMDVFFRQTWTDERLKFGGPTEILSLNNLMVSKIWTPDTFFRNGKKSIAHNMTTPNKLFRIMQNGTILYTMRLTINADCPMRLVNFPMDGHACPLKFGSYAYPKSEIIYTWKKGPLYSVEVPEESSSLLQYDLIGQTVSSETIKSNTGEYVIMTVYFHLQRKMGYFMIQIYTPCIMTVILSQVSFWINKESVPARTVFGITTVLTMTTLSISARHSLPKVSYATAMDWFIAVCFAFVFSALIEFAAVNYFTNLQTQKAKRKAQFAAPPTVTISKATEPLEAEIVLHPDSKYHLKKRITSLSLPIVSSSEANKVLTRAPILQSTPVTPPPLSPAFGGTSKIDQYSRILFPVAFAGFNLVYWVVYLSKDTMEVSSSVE

[7] = biological target: T3, GABA-A receptor; alpha-3/beta-3/gamma-2 (Homo sapiens, UniProt P18507+P28472+P34903); experiment: Displacement of [3H]flunitrazepam from human recombinant GABAA alpha-3-beta-3-gamma-2 receptor expressed in HEK cells by liquid scintillation counting; format: cell-based, HEK293
T3 sequence (P18507 whole entry): T1 sequence (P18507 whole entry)
T3 sequence (P28472 whole entry): T1 sequence (P28472 whole entry)
T3 sequence (P34903 whole entry): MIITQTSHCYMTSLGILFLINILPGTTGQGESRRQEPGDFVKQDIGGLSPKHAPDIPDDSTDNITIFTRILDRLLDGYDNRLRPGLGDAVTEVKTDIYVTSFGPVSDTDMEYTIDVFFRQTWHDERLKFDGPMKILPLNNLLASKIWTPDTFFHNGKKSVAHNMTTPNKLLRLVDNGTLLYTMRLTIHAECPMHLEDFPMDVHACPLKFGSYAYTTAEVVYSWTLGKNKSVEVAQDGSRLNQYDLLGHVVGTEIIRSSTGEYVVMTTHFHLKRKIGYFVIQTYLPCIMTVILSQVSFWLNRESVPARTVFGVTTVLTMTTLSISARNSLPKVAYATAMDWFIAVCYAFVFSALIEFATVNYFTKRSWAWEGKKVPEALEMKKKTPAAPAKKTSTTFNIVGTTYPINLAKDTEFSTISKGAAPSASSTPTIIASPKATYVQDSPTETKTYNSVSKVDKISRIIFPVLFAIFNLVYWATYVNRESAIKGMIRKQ

[8] = biological target: T4, GABA-A receptor; alpha-2/beta-3/gamma-2 (Homo sapiens, UniProt P18507+P28472+P47869); experiment: Displacement of [3H]flunitrazepam from human recombinant GABAA alpha-2-beta-3-gamma-2 receptor expressed in HEK cells by liquid scintillation counting; format: cell-based, HEK293
T4 sequence (P18507 whole entry): T1 sequence (P18507 whole entry)
T4 sequence (P28472 whole entry): T1 sequence (P28472 whole entry)
T4 sequence (P47869 whole entry): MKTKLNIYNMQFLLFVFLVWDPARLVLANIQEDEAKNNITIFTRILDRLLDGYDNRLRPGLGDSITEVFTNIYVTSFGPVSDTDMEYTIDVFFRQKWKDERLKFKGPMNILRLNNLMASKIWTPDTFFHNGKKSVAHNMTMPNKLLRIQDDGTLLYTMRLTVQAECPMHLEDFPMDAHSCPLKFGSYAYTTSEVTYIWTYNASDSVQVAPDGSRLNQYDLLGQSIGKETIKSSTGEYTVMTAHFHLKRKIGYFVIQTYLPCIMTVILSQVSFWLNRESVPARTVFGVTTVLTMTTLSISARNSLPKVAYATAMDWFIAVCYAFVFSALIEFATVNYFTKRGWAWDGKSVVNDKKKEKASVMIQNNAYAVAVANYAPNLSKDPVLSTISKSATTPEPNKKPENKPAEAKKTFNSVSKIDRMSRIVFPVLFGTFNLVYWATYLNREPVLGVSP

[9] = biological target: T5, GABA A receptor alpha-4/beta-3/gamma-2 (Homo sapiens, UniProt P18507+P28472+P48169); experiment: Displacement of [3H]flunitrazepam from human recombinant GABAA alpha-4-beta-3-gamma-2 receptor expressed in HEK cells by liquid scintillation counting; format: cell-based, HEK293; conditions: read-out: Ki
T5 sequence (P48169 whole entry, one chain of several): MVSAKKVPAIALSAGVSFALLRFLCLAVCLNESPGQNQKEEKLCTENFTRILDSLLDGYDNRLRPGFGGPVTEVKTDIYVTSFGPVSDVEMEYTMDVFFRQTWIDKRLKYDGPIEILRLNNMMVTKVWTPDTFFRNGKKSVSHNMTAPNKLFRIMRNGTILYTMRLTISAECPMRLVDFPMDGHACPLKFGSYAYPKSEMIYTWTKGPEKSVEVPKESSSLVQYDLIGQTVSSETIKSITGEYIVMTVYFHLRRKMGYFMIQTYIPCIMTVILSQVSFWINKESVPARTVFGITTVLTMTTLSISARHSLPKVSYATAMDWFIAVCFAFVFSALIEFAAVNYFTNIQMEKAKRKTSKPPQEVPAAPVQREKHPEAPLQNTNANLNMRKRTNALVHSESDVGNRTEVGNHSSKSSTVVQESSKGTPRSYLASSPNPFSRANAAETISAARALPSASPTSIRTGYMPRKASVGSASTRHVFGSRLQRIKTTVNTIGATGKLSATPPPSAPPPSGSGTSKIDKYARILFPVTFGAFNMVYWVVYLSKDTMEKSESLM

[10] = biological target: GABA-A receptor; alpha-2/beta-3/gamma-2 (Homo sapiens) (UniProt P18507+P28472+P47869); experiment: Agonist activity at human recombinant GABAA alpha-2-beta-3-gamma-2 receptor expressed in Xenopus oocytes at 1 to 10 uM by patch clamp technique; format: functional, cell-based; conditions: Oocyte
[11] = biological target: T5, GABA A receptor alpha-4/beta-3/gamma-2; experiment: Agonist activity at human recombinant GABAA alpha-4-beta-3-gamma-2 receptor expressed in Xenopus oocytes at 1 to 10 uM by patch clamp technique; format: functional, cell-based; conditions: Oocyte

SMILES	Activity [1] [%]	Activity [2] [%]	Activity [3] [%]	Ki [4] [nM]	Ki [5] [nM]	Ki [6] [nM]	Ki [7] [nM]	Ki [8] [nM]	Ki [9] [nM]	Activity [10] [%]	Activity [11] [%]
CCOC(=O)c1ncn2c1CN(C)C(=O)c1cc(F)ccc1-2	96	99	118								
CCOC(=O)c1ncc2[nH]c3cccc(OC(C)C)c3c2c1C	96										
C[C@@H](OC(=O)c1cc2c(cn1)[nH]c1ccccc12)C(F)(F)F				1850	27	> 2000	453	343	> 3000		
CC(C)(C)OC(=O)c1cc2c3ccccc3nc-2c[nH]1	88	96	108						1000	99	107
CC(C)(C)OC(=O)c1cc2c(cn1)[nH]c1ccc(I)cc12				65.3	14.4	> 4000	123	44.9	> 4000		
C[C@H](OC(=O)c1cc2c(cn1)[nH]c1ccccc12)C(F)(F)F				1850	90	> 2000	172	931	> 3000		
CC(C)(C)OC(=O)c1cc2c(cn1)[nH]c1ccc(C#Cc3ccc4[nH]c5cnc(C(=O)OC(C)(C)C)cc5c4c3)cc12				> 300	30	> 4000	100	124	> 300		
O=C(OCC(F)(F)F)c1cc2c(cn1)[nH]c1ccccc12				126	3	> 2000	41.7	24.5	> 500		
